Holding throughout (assay type): biochemical
The target in assay [1] is T1, Zap70 (Homo sapiens, UniProt P43403).
T1 sequence (P43403 338-600 limits assumed): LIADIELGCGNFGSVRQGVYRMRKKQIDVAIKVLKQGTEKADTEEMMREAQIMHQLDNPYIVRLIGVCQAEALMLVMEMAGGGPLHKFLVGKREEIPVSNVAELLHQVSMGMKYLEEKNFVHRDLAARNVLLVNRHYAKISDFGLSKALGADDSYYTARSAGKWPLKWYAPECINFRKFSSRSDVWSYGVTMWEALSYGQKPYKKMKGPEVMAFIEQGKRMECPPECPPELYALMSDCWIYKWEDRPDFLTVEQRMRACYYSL
Description: Zap70 kinase assay (ELISA or Alphascreen). The following applies: read-out: Zap70 inhibition of enzyme activity. In a few lines: (§1)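 PTK domain ~1.5 μg; 50 mM HEPES pH 7.5, 10 mM MgCl2, 150 mM NaCl; ATP 10 μM-1 mM; biotinylated peptide 5 μM final. Read-out: avidin-capture ELISA with PY20 or Alphascreen pTyr acceptor/streptavidin donor beads.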
(In general: ELISA stands for enzyme-linked immunosorbent assay.)

Assay [2] concerns the target T2, human JAK2 (Homo sapiens, UniProt O60674).
T2 construct: The kinase domain of human JAK2 was amplified from U937mRNA; His tag (from the pFastBac HTc vector) (N); made in house; host or cells: baculovirus; Sf9 for virus, High Five insect cells for production
As to the kind of experiment: JAK2 kinase assay (ELISA or Alphascreen). The following applies: read-out: Jak2 inhibition of enzyme activity. In a few lines:
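His-tagged human JAK2 kinase domain from baculovirus-infected insect cells, ~1.5 μg per assay, in 50 mM HEPES pH 7.5, 10 mM MgCl2, 150 mM NaCl, with 10 μM–1 mM ATP and 5 μM biotinylated peptide substrate. Phosphotyrosine detected by PY20 ELISA or AlphaScreen.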

The target in assay [3] is T3, human JAK3 (Homo sapiens, UniProt P52333).
T3 construct: The kinase domain of human JAK3 was amplified from U937mRNA; His tag (from the pFastBac HTb vector) (N); made in house; host or cells: baculovirus; Sf9 for virus, High Five insect cells for production
T3 sequence (P52333 822-1111 limits assumed): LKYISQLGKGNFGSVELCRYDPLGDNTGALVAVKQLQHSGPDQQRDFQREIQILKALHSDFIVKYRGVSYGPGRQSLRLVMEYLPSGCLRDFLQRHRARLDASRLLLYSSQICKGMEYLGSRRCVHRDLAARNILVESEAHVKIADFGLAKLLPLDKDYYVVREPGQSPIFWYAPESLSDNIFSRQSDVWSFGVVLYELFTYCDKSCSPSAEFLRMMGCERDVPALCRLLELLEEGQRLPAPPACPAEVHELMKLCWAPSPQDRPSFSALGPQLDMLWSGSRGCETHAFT
Description: JAK3 kinase assay (ELISA or Alphascreen). The following applies: read-out: Jak3 inhibition of enzyme activity. In a few lines: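 Read-out: anti-phosphotyrosine detection of a 5 μM biotin-peptide substrate, via PY20-peroxidase ELISA or Alphascreen beads. Enzyme was nickel-purified recombinant JAK3 kinase domain (~1.5 μg), with ATP at 10 μM-1 mM, pH 7.5 HEPES/MgCl2/NaCl.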

The target in assay [4] is T4, fms (Homo sapiens, UniProt P07333).
T4 sequence (P07333 582-910 limits assumed): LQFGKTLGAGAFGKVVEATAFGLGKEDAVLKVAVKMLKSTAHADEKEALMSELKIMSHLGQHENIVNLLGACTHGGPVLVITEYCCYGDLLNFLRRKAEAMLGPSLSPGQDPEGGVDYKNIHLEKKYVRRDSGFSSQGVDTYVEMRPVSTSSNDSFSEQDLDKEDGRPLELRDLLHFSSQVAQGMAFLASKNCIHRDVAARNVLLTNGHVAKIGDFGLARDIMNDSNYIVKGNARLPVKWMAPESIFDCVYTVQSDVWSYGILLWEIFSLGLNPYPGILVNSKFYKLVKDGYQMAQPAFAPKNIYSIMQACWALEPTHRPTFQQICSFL
As to the kind of experiment: fms kinase assay (ELISA or Alphascreen). The following applies: read-out: fms inhibition of enzyme activity. In a few lines: as §1

The target in assay [5] is hck (Homo sapiens, UniProt P08631). Description: hck kinase assay (ELISA or Alphascreen). The following applies: read-out: hck inhibition of enzyme activity. In a few lines: as §1
Chain of hck (P08631 262-515 limits assumed, species assumed): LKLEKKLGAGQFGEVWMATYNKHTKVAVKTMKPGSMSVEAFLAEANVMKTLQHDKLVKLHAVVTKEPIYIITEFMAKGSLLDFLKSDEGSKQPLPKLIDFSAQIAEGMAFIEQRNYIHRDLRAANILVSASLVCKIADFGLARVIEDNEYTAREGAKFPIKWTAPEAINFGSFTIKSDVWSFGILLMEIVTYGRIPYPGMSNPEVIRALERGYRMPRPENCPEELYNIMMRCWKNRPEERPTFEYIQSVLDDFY
Assay [6] concerns the target T5, abl (Homo sapiens, UniProt P00519).
T5 sequence (P00519 242-493 limits assumed): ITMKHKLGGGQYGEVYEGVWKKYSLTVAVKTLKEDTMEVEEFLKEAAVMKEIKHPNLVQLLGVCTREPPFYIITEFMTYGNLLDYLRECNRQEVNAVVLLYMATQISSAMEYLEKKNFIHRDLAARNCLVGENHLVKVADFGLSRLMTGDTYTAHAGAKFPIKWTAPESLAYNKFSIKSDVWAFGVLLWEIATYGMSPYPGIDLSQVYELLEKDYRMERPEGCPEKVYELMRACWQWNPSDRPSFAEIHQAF
Description: abl kinase assay (ELISA or Alphascreen). The following applies: read-out: abl inhibition of enzyme activity. In a few lines:
as §1

The target in assay [7] is fes (Homo sapiens, UniProt P07332). Description: fes kinase assay (ELISA or Alphascreen). The following applies: read-out: fes inhibition of enzyme activity. In a few lines:
as §1

The structures appear in SMILES notation.

What is called inhibition is the change of the read-out against control, counted positive when it falls.

T2 sequence (O60674 849-1124 limits assumed): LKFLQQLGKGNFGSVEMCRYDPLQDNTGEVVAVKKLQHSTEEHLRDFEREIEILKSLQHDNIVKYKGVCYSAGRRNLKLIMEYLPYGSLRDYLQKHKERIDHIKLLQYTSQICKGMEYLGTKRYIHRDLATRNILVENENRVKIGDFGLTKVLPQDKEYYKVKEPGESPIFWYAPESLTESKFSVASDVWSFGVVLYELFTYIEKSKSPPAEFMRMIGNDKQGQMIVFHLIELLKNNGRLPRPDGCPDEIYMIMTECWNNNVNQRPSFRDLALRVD
Chain of fes (P07332 561-822 limits assumed, species assumed): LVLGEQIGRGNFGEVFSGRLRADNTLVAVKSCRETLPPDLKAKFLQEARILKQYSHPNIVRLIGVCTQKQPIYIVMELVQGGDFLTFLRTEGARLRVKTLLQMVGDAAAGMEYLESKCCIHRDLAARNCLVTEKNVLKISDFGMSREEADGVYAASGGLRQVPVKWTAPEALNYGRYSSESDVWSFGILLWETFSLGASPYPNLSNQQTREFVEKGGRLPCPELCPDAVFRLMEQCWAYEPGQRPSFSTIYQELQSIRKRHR

As for `O=C(Nc1ccccc1)c1cncc(-c2ccc(O)cc2)c1`, the inhibition at 10 µM in assay [1], in assay [2], in assay [3], in assay [4], in assay [5] and in assay [6] was less than 50% throughout.

As for `CC(C)NC(=O)c1cncc(-c2ccc(O)cc2)c1`, the inhibition at 10 µM in assay [1] was less than 50%; in assay [2] it was less than 50%; in assay [4], less than 50%; in assay [5], no less than 50%; in assay [6], less than 50%; in assay [7], less than 50%.

As for `Cc1ccc(C)c(NC(=O)c2cncc(-c3ccc(O)cc3)c2)c1`, the inhibition at 10 µM was less than 50% in assay [1]; less than 50% in assay [2]; less than 50% in assay [3]; less than 50% in assay [4]; no less than 50% in assay [5]; less than 50% in assay [6].

Turning to `Cc1cc(-c2cncc(C(=O)Nc3ccccc3)c2)cc(C)c1O`, the inhibition at 10 µM in assay [1] is less than 50%; in assay [2], less than 50%; in assay [3] it was less than 50%; in assay [4], less than 50%; in assay [5], no less than 50%; in assay [6], less than 50%.

For `Cc1ccccc1NC(=O)c1cncc(-c2cc(C)c(O)c(C)c2)c1`, the inhibition at 10 µM in assay [1] is less than 50%; in assay [2], less than 50%; in assay [3] it was less than 50%; in assay [4], no less than 50%; in assay [5], no less than 50%; in assay [6] it was no less than 50%.

On to `COc1cc(-c2cncc(C(=O)NCc3ccncc3)c2)c(Cl)c(OC)c1OC`, for which the inhibition at 10 µM in assay [1], in assay [2], in assay [4], in assay [5], in assay [6] and in assay [7] was less than 50% each time.

As for `COc1cc(-c2cncc(C(=O)NC(C)CCc3ccccc3)c2)c(Cl)c(OC)c1OC` (stereo not drawn), the inhibition at 10 µM in assay [1], in assay [2], in assay [3], in assay [4], in assay [5] and in assay [6] was less than 50% throughout.

Turning to `O=C(NCc1ccc(N2CCOCC2)cc1)c1cncc(-c2ccc3c(c2)OCO3)c1`, the inhibition at 10 µM in assay [2], in assay [3], in assay [4], in assay [5], in assay [6] and in assay [7] was less than 50% each time.

In the case of `Cc1cc(F)ccc1NC(=O)c1cncc(-c2ccc3c(c2)OCO3)c1`, the inhibition at 10 µM in assay [1], in assay [2], in assay [3], in assay [4], in assay [5] and in assay [6] was less than 50% throughout.

`O=C(NCc1cccc(F)c1)c1cncc(-c2cccs2)c1`: the inhibition at 10 µM in assay [2] is less than 50%; in assay [3] it was less than 50%; in assay [4], less than 50%; in assay [5] it was less than 50%; in assay [6], less than 50%; in assay [7] it was no less than 50%.

As for `C[C@@H](NC(=O)c1cncc(-c2cccnc2)c1)c1ccccc1`, the inhibition at 10 µM in assay [2], in assay [3], in assay [4], in assay [5], in assay [6] and in assay [7] was less than 50% each time.

Regarding `C[C@H](NC(=O)c1cncc(-c2ccc(F)cc2)c1)c1ccccc1`, the inhibition at 10 µM in assay [1], in assay [2], in assay [3], in assay [4], in assay [5] and in assay [6] was less than 50% each time.

Turning to `O=C(NCc1ccc(Cl)c(Cl)c1)c1cncc(-c2ccc(F)cc2)c1`, the inhibition at 10 µM in assay [2], in assay [3], in assay [4], in assay [5], in assay [6] and in assay [7] was less than 50% in each case.

In the case of `O=C(Nc1ccccc1)c1cncc(-c2ccc(F)cc2)c1`, the inhibition at 10 µM in assay [2], in assay [3], in assay [4], in assay [5], in assay [6] and in assay [7] was less than 50% throughout.

As for `O=C(NCc1ccco1)c1cncc(-c2ccc(F)cc2)c1`, the inhibition at 10 µM was less than 50% in assay [1]; less than 50% in assay [2]; no less than 50% in assay [3]; less than 50% in assay [4]; less than 50% in assay [5]; less than 50% in assay [6].

As to `COc1cc(NC(=O)c2cncc(-c3ccc(F)cc3)c2)cc(OC)c1OC`, the inhibition at 10 µM in assay [1], in assay [2], in assay [3], in assay [4], in assay [5] and in assay [6] was less than 50% throughout.

Turning to `COc1cccc(-c2cncc(C(=O)Nc3ccccc3)c2)c1`, the inhibition at 10 µM in assay [2], in assay [3], in assay [4], in assay [5], in assay [6] and in assay [7] was less than 50% in each case.

Regarding `COc1cccc(-c2cncc(C(=O)Nc3ccc(F)cc3C)c2)c1`, the inhibition at 10 µM in assay [2] is less than 50%; in assay [3], less than 50%; in assay [4], less than 50%; in assay [5], no less than 50%; in assay [6], less than 50%; in assay [7] it was less than 50%.

Regarding `COc1cccc(-c2cncc(C(=O)NC(C)CCc3ccccc3)c2)c1` (stereo not drawn), the inhibition at 10 µM in assay [1], in assay [2], in assay [4], in assay [5], in assay [6] and in assay [7] was less than 50% throughout.

Turning to `COc1cccc(-c2cncc(C(=O)Nc3ccc(OC)cc3OC)c2)c1`, the inhibition at 10 µM in assay [2], in assay [3], in assay [4], in assay [5], in assay [6] and in assay [7] was less than 50% throughout.

As for `COc1cc(-c2cncc(C(=O)Nc3cc(C)ccc3C)c2)ccc1O`, the inhibition at 10 µM was less than 50% in assay [1]; less than 50% in assay [2]; less than 50% in assay [3]; no less than 50% in assay [4]; no less than 50% in assay [5]; no less than 50% in assay [6].

With `C[C@@H](NC(=O)c1cncc(-c2ccncc2)c1)c1ccccc1`, the inhibition at 10 µM is no less than 50% in assay [1]; less than 50% in assay [2]; less than 50% in assay [3]; less than 50% in assay [4]; less than 50% in assay [5]; less than 50% in assay [6].
